The term IC50 denotes the concentration at which inhibition is half-maximal.

Drawing on BindingDB's records for doi:10.1021/acs.jmedchem.6b01892 (University of Regensburg, 2017), this text covers IC50 for two compounds.

Each structure is given as a SMILES string.

Experiment [1] is described as follows: Competitive binding affinity to human muscarinic acetylcholine receptor M2 expressed in […] cell homogenates assessed as W84 pIC50 at 4 nM after 2 hrs by liquid scintillation counting assay.
A short description of experiment [2]: Competitive binding affinity to human muscarinic acetylcholine receptor M2 expressed in […] cell homogenates assessed as W84 pIC50 at 1 nM after 2 hrs by liquid scintillation counting assay.
Experiment [3] can be described thus: Competitive binding affinity to human muscarinic acetylcholine receptor M2 expressed in […] cell homogenates assessed as W84 pIC50 at 2 nM after 2 hrs by liquid scintillation counting assay.
The nature of experiment [4]: Competitive binding affinity to human muscarinic acetylcholine receptor M2 expressed in […] cell homogenates assessed as W84 pIC50 at 0.4 nM after 2 hrs by liquid scintillation counting assay.
Experiment [5] can be described thus: Competitive binding affinity to human muscarinic acetylcholine receptor M2 expressed in […] cells assessed as W84 pIC50 at 15 nM after 2 hrs by liquid scintillation counting assay.
Experiment [6] can be described thus: Competitive binding affinity to human muscarinic acetylcholine receptor M2 expressed in […] cells assessed as W84 pIC50 at 30 nM after 2 hrs by liquid scintillation counting assay.
The nature of experiment [7]: Competitive binding affinity to human muscarinic acetylcholine receptor M2 expressed in […] cells assessed as W84 pIC50 at 8 nM after 2 hrs by liquid scintillation counting assay.
Experiment [8] is described as follows: Competitive binding affinity to human muscarinic acetylcholine receptor M2 expressed in […] cells assessed as W84 pIC50 at 4 nM after 2 hrs by liquid scintillation counting assay.
Experiment [9] in a line: Competitive binding affinity to human muscarinic acetylcholine receptor M2 expressed in […] cells assessed as W84 pIC50 at 2 nM after 2 hrs by liquid scintillation counting assay.

Take `[3H]CC([3H])C(=O)NCc1cc(C(=O)NCCNC(=O)CCc2cn(CCCCC3CCN(CC(=O)N4c5ccccc5NC(=O)c5ccccc54)CC3)cn2)cc(C(=O)NCCNC(=O)CCc2cn(CCCCC3CCN(CC(=O)N4c5ccccc5NC(=O)c5ccccc54)CC3)cn2)c1` (centres undefined): the IC50 in [1] was 18600 nM; in experiment [2] it was 6610 nM; in experiment [3], 10500 nM; in [4], 2690 nM.
With `[3H]CC([3H])C(=O)NCCNC(=O)CCc1cn(CCCCC2CCN(CC(=O)N3c4ccccc4NC(=O)c4ccccc43)CC2)cn1` (centres undefined), the half-maximal inhibitory concentration (IC50) in [5] worked out at 1350 nM; in experiment [6], 2090 nM; in experiment [7] it was 631 nM; in [8], 282 nM; in experiment [9] it was 182 nM.
